The source of these data is the METLIN SMRT retention time set (Domingo-Almenara et al. 2019).

The data set can be described thus: gradient 5% acetonitrile 3 min, to 50% in 2 min, to 85% in 15 min, held 3 min, 100 µL/min. The following applies: column: Zorbax Extend-C18 2.1 x 50 mm; eluents: water / acetonitrile, 0.1% formic acid. A digest of the protocol: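 Pure standards were run in mixtures of ~100 molecules by HPLC coupled to a quadrupole time-of-flight mass spectrometer. The column was a Zorbax Extend-C18 (2.1 × 50 mm, 1.8 μm) at 100 μL/min, with water and acetonitrile each containing 0.1% formic acid, in positive and negative ionization mode. Dead and dwell volumes were 40 μL and 900 μL. Retention time was taken from computationally picked adduct peaks, each manually inspected, with data collected over 3 months.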
Molecule `COc1cccc(Cn2c(C(=O)N3CCC(C(=O)NCc4ccc(C)o4)CC3)cc3ccsc32)c1` showed an RP-LC retention time of 970 s.

The molecule `CCCCN(CCCNC(=O)C1CCN(S(=O)(=O)CC)CC1)c1ccccc1` gave an RP-LC retention time of 645 s.

Take `Cc1cc(N2CCCC2)nc(N2CCN(C(=O)c3ccc(-c4ccccc4)cc3)CC2)n1`: the RP-LC retention time was determined as 813 s.

For `O=C(CCC1CCN(c2cc(NC3CC3)ncn2)CC1)NCCN1CCc2ccccc2C1`, the RP-LC retention time was 574 s.

In turn, `O=C(c1ccccc1F)N1CCC(C(=O)N2CCc3ccccc32)CC1` gave an RP-LC retention time of 822 s.

`Cc1ccc(-c2nc3cnccn3c2Nc2ccc3c(c2)OCCO3)cc1` showed an RP-LC retention time of 841 s.

The molecule `CCCCCc1cccnc1` returned an RP-LC retention time of 669 s.

Molecule `Cc1ccc(S(=O)(=O)N2CCCC(Cn3cnc4cccnc43)C2)cc1C` (stereo not given) returned an RP-LC retention time of 827 s.

For the molecule `CCOC(=O)C1CCN(C(=O)C2CCN(c3cnc4nccnc4c3)CC2)CC1`, the RP-LC retention time is 663 s.

The molecule `CCN1c2ccc(F)cc2C(=O)NC12CCN(C(=O)c1ccccc1)CC2` returned an RP-LC retention time of 763 s.

In turn, `CN(C)C(=O)c1cc2c(s1)CCC(C(=O)N1CCOCC1)C2` (stereo not given) gave an RP-LC retention time of 781 s.

Molecule `Cc1cccc(C)c1Nc1c(-c2ccc(O)cc2)nc2ncccn12` showed an RP-LC retention time of 658 s.

In the case of `CCCN1C(=O)CCc2c(C)ncnc21`, the RP-LC retention time amounted to 611 s.

`CCC(C)NC(=O)c1ccc2ccnc(N3CCN(c4ccc(F)cc4)CC3)c2c1` (stereo not given) showed an RP-LC retention time of 785 s.

`CC(C)CNC(=O)CN1c2ccc(F)cc2-c2ccccc2S1(=O)=O`: the RP-LC retention time was 920 s.

Consider `Cc1noc(C)c1S(=O)(=O)NCC1CCN(S(=O)(=O)C2CC2)CC1`, for which the RP-LC retention time stood at 709 s.

On to `O=C(O)c1cccc(Nc2c(-c3ccccc3)nc3cnccn23)c1`, for which the RP-LC retention time is 697 s.

In the case of `CSc1ccc(-c2nc3cnccn3c2Nc2ccc(C(C)C)cc2)cc1`, the RP-LC retention time turned out to be 1160 s.

Molecule `O=C(CSc1ccc(NC(=O)c2cccs2)nn1)Nc1ccccc1C(F)(F)F` yielded an RP-LC retention time of 842 s.

As for `COc1cccc(CNC(=O)Cn2c(=O)c3cc(-c4ccco4)nn3c3ncccc32)c1`, the RP-LC retention time came out at 771 s.

The molecule `COC1CCC12CCN(C(=O)C1CCOCC1)CC2` (stereo not given) came in with an RP-LC retention time of 636 s.

Molecule `CC1=C(c2ccccc2)S(=O)(=O)N=C1N1CCCN(C(=O)c2ccco2)CC1` gave an RP-LC retention time of 719 s.

On to `Cc1ccc2cc(CN3CCC4(CC3)CC(C)(O)CCO4)c(=O)[nH]c2c1` (stereo not given), for which the RP-LC retention time came out at 603 s.

In turn, `Cc1ncoc1C(=O)NCC1Cn2cccc2C(=O)N1CC(C)C` (stereo not given) showed an RP-LC retention time of 647 s.

`Cc1cccc(-c2nnc(SCc3cc(=O)n4nc(C)sc4n3)o2)c1` showed an RP-LC retention time of 782 s.

The molecule `CC1CCN(C(=O)c2cc(S(=O)(=O)N3CCC(C(=O)N4CCCCC4)CC3)cn2C)CC1` showed an RP-LC retention time of 796 s.

`COc1ccc(CCC(=O)N2CCC3(C2)C(=O)Nc2ccccc23)cc1` (stereo not given): the RP-LC retention time came out at 729 s.

Molecule `O=C(CN1CCN(Cc2cccc(Cl)c2)C1=O)NC1CC1` gave an RP-LC retention time of 683 s.

On to `O=C(Nc1cnn(-c2ncncc2N2CCSCC2)c1)C1CCCCC1`, for which the RP-LC retention time is 778 s.

`Cc1noc(-c2ccc(=O)n(CC(=O)Nc3ccccc3)c2)n1` gave an RP-LC retention time of 667 s.

In the case of `CC(C)c1ccc(Nc2c(-c3ccc(Cl)cc3)nc3cnccn23)cc1`, the RP-LC retention time stood at 1190 s.

On to `Cc1cc(S(=O)(=O)N2CCc3c(c(-c4nnc(-c5ccc(F)cc5)o4)nn3C)C2)ccc1F`, for which the RP-LC retention time is 992 s.

On to `CC(NC(=O)Cn1cc(C(=O)C(=O)N2CCOCC2)c2ccccc21)c1ccc2c(c1)OCCCO2` (stereo not given), for which the RP-LC retention time amounted to 787 s.

The molecule `CCc1ccccc1NC(=O)COc1nc(C)nc2ccccc12` showed an RP-LC retention time of 747 s.

Turning to `CC(C)(C)c1onc(OCP(=O)(O)O)c1CC(N)C(=O)O` (stereo not given), the RP-LC retention time came to 594 s.

`CCOc1ccc(CNC(=O)C2CCCN2S(=O)(=O)c2cc3c(cc2Cl)NC(=O)CO3)cc1` (stereo not given) gave an RP-LC retention time of 760 s.

Take `CCc1nnc(-c2ccc3ccn(CC(=O)NCc4cc(OC)ccc4OC)c3c2)o1`: the RP-LC retention time came to 793 s.

`Cc1c(C(=O)N2CCN(c3ccccn3)CC2)sc2nc3n(c(=O)c12)CCC3` returned an RP-LC retention time of 571 s.

As for `Cc1ccn2c(Nc3ccc4c(c3)OCO4)c(-c3ccccc3)nc2c1`, the RP-LC retention time was 690 s.

For `O=C(NCc1cccs1)c1nnc(-c2ccc(S(=O)(=O)N3CCOCC3)cc2)o1`, the RP-LC retention time worked out at 804 s.

Molecule `O=C(Nc1cccnc1)C1CCCN(c2ncnc3c2nc2n3CCCCC2)C1` (stereo not given) gave an RP-LC retention time of 603 s.

Turning to `CCOc1ccccc1NC(=O)Cn1nc(N2CCC(C)CC2)c2ccccc2c1=O`, the RP-LC retention time is 1290 s.

The molecule `CCOCCCNC(=O)N1CCN(c2nnc(C)c3c(C)n(-c4ccc(C)cc4)nc23)CC1` displayed an RP-LC retention time of 669 s.

As to `COc1ccc(-c2nc3cnccn3c2Nc2ccc(C(N)=O)cc2)cc1`, the RP-LC retention time was determined as 612 s.

For `Cc1sc(-c2nnc(C(=O)N3CCCCC3)o2)cc1S(=O)(=O)NC1CC1`, the RP-LC retention time is 824 s.

The molecule `Cc1ccccc1-c1noc(C2CCCN2C(=O)Nc2ccccc2F)n1` (stereo not given) came in with an RP-LC retention time of 1020 s.

The molecule `Cc1cc(C)cc(C(=O)N2CCCC(C(=O)NCCc3ccco3)C2)c1` (stereo not given) displayed an RP-LC retention time of 836 s.

Molecule `Cn1c(=O)c2ccn(CC(=O)Nc3ccc(F)cc3Cl)c2n(C)c1=O` returned an RP-LC retention time of 695 s.

As to `CCCn1c(=O)c2c(ncn2C)n(CCC)c1=O`, the RP-LC retention time was 785 s.

As to `CC(=O)Nc1ccc(CCc2nc3ccc(C(=O)NCc4ccco4)cc3[nH]2)cc1`, the RP-LC retention time is 606 s.

In turn, `Cc1nnc2c(=O)n(CC(=O)NC3CCCCC3)c3cccnc3n12` displayed an RP-LC retention time of 668 s.

Molecule `O=C(CCc1nnc2ccc(NCc3ccco3)nn12)N1CCN(c2ccccn2)CC1` came in with an RP-LC retention time of 569 s.

In the case of `O=C(C1CCN(S(=O)(=O)c2ccc3nc(-c4ccccc4)[nH]c3c2)CC1)N1CCCC1`, the RP-LC retention time came to 699 s.

On to `O=C(Cc1c(F)cccc1Cl)Nc1cnn(-c2ncc(N3CCCC3)cn2)c1`, for which the RP-LC retention time was determined as 771 s.

As for `O=C(Nc1ccc2c(c1)Cc1ccccc1-2)c1csc(Nc2ncccn2)n1`, the RP-LC retention time turned out to be 972 s.

`O=C(NCC1CCCO1)C1CCN(Cc2cc3ccccc3n2Cc2ccc(F)cc2)CC1` (stereo not given) had an RP-LC retention time of 702 s.

In the case of `O=C(NCc1cccs1)C(=O)NCC1(c2cccs2)CC1`, the RP-LC retention time stood at 860 s.

As for `COCC(=O)Nc1ccc(SCc2nnc(-c3ccc4c(c3)OCO4)o2)cc1`, the RP-LC retention time was determined as 789 s.

As to `Cc1nc(Cn2cccc2C(=O)Nc2ccc(Cl)cc2F)no1`, the RP-LC retention time is 893 s.

Molecule `COC[C@@H]1CN(S(=O)(=O)c2cccc(F)c2)C[C@H]1c1ccccn1` registered an RP-LC retention time of 639 s.
